Values joined by “and” are separate entries in the source; they are usually repeats but may differ in a detail not shown here. Identical values can stand only once. Like-named read-outs stand apart in the source and are kept apart here. Ends that are not written are not given here.
How the values were obtained:
[1] = tested on: adult Nf1+/- mice DRG neurons; test: K+-stimulated release of iCGRP from Nf1+/- sensory neurons (RIA); assay type: cell-based, mouse
[2] = target: interaction between CaV2.2 and CRMP2 (Rattus norvegicus, UniProt P47942); test: Immunoprecipitation with CaV2.2 antibody from rat dorsal root ganglia lysate, CRMP2 immunoblot; assay type: biochemical; conditions: 10 μM peptide added for 30 min; rat DRG
adult rat DRG neurons = test: Fura-2 calcium imaging of K+-stimulated Ca2+ influx; assay type: cell-based
[3] = cell permeability; Wender et al.; cited from earlier work
rats with TNI = conditions: 10 mg/kg i.p.; evaluated at 1 h and 4 h
Experimental: Antinociceptive efficacy following acute and continuous systemic infusion. Test animals with tibial nerve injury (TNI)-induced neuropathic pain behavior (over 6 months) were administered to a single intraperitoneal injection or continual constant-rate infusion of polyarginine-conjugated CBD3A6K (ST2-106). Female Sprague-Dawley rats with TNI were administered a single injection of saline or 20 mg/kg of ST2-106.
Female Sprague-Dawley rats with TNI were infused with saline or ST2-106 over a 24 to 72 hour period using subcutaneously implanted Alzet® osmotic minipumps. […] Rats were used at 28 days after tibial nerve injury.
Paw-withdrawal thresholds (PWT in millinewtons, mN) were measured in naïve rats and rats subjected to spared nerve injury (i.e. tibial nerve ligation, TNI).
Paw-withdrawal thresholds (PWT in millinewtons, mN) were also measured in naïve rats and rats subjected to TNI when treated with compounds described herein or vehicle for extended periods.

naïve rodents = conditions: in vivo, ip
adult mouse DRG neurons = test: K+-stimulated release of iCGRP from isolated sensory neurons (RIA); assay type: cell-based; conditions: 10 μM peptide; for basal or resting release of iCGRP: 3.5 mM KCl
Experimental: EXAMPLE. Primary dorsal root ganglion (DRG) neuronal cultures. Isolation of sensory neurons from 1 to 2 month old wildtype C57BL/6J and Nf1^+/− C57BL/6J littermates (34) was performed exactly as described previously (11,35,36) while DRGs from adult rats were prepared as per Brittain and colleagues (11). All animals were housed, bred, and had free access to food and water in the Indiana University Laboratory Animal Research Center and used in procedures approved by the Animal Use and Care Committee of the Indiana University School of Medicine. All animals were genotyped prior to use in experiments.
EXAMPLE. Stimulated-release of iCGRP. Measurement of stimulus-evoked release and content of immunoreactive CGRP (iCGRP) from isolated sensory neurons was accomplished as previously published (11,33,35). After 5-7 days in culture, media was removed and the basal or resting release of iCGRP was measured from cells incubated for 10 minutes in HEPES buffer consisting of (in mM): 25 HEPES, 135 NaCl, 3.5 KCl, 2.5 CaCl2, 1 MgCl2, 3.3 dextrose, and 0.1% (w/v) bovine serum albumin, pH 7.4, and maintained at 37° C. […] The amount of iCGRP released in each incubation was measured by a radioimmunoas say (RIA). The minimum amount of iCGRP detected by the RIA is 5 fmol with a 95% confidence interval (37). After the release protocol, the remaining peptide content in each well was determined by exposing the cells to 2 N acetic acid for 10 minutes. Aliquots of acid solution were diluted in HEPES and iCGRP levels were determined by RIA. The release of iCGRP during the 10 min incubation period is expressed as percent of the total content. […]
EXAMPLE. […] The KCl-stimulated release of CGRP was measured from sensory neurons exposed to TAT-control, TAT-L1 or TAT-Ct-dis peptides, at 10 μM (a concentration at which Ca^2+ influx was largely unaffected by both peptides), included in the 10 minutes prior to and throughout the high K^+ exposures (total peptide exposure of 30 min). […]

ddC-injected rats = test: ddC model of peripheral neuropathy, von Frey paw withdrawal threshold; assay type: in vivo, rat
[4] = tested on: R-type (CaV2.3) Ca2+ currents; test: R-type Ca2+ current recording in sensory neurons; assay type: cell-based
[5] = tested on: lumbar 4-5 DRG neurons from d4T-treated rats; test: Current clamp recording of action potential firing; assay type: cell-based, rat; conditions: 10 μM
Experimental: EXAMPLE. […] Current clamp recordings were performed on small-to-medium (>30 μm->40 μm) diameter lumbar 4-5 DRG neurons from d4T-treated rats. Firing of 4-6 action potentials (APs) was elicited by a 1 second depolarizing current injection (ranging from 0.1 to 0.4 nA depending on the cell) every 30 seconds.

d4T-treated rats = test: d4T-induced mechanical hypersensitivity, paw withdrawal threshold; conditions: administered at 10 mg

## ARSRLAELRGVPRGL (listed as Homo sapiens) [CBD3, short peptide derived from CRMP2]
[1]; Nf1+/- neurons, 50 mM KCl, 10 μM peptide
  less iCGRP release compared to TAT-control: ~78%

## NSSFPSIHCSSWSEE [Ct-dis]
[2]
  amount of CRMP2 captured with CaV2.2 antibody: reduced the amount of CRMP2 that could be captured
Adult rat DRG neurons; 30 μM
  peptide-mediated inhibition of [Ca2+]c influx, Ct-dis versus L1: much more pronounced
Adult rat DRG neurons; 20 min incubation, 3 μM and 30 μM (FIG. 1), 46.5 mM KCl
  K+-stimulated [Ca2+]c influx: concentration-dependent decrease

## R9: oligoarginine (SEQ ID NO: 1) (RRRRRRRRR)
[3]
  greater penetration than TAT: 100 fold

## RRRRRRRRRARSRLAELRGVPRGL [ST2-104]
Rats with TNI
  nerve-injury induced nociception (PWT): reverses nerve-injury induced nociception

## RRRRRRRRRARSRLKELRGVPRGL [ST2-106]
naïve rodents
  PWT in naïve animals: unaffected

## YGRKKRRQRRR-NSSFPSIHCSSSWSEE [TAT-Ct-dis]
Adult mouse DRG neurons; 50 mM KCl
  less iCGRP release compared to TAT-control: ~70%
[1]
  less iCGRP release compared to TAT-control: ~70%
ddC-injected rats; 4 mg/kg i.p., two hours after injection
  peptide-induced reversal of hypersensitivity: diminished to pre-peptide levels
ddC-injected rats; ~4 mg/kg i.p., 1 h after injection, seven days after ddC
  reversal of tactile hypersensitivity (PWT): Almost complete reversal of tactile hypersensitivity

## YGRKKRRQRRR-WEAKEMLYFEALVIE (YGRKKRRQRRRWEAKEMLYFEALVIE) [TAT-control, reference compound]
Adult mouse DRG neurons
  basal or resting release of iCGRP: 1.58±0.17 % total peptide content/10 min and 0.92±0.09 % total peptide content/10 min
[1]
  increase in iCGRP release over basal: 8 to 10 fold

## YGRKKRRQRRR-YLEWIFKAEEVMLAE (YGRKKRRQRRRYLEWIFKAEEVMLAE) [TAT-L1]
Adult mouse DRG neurons
  basal or resting release of iCGRP: 1.04±0.09 % total peptide content/10 min

## YGRKKRRQRRRARSRLAELLGVPRGL [ST1-106]
[4]
  R-type calcium current density: showed a significant decrease over control
[5]
  number of elicited action potentials: reduces the number of elicited action potentials

## YGRKKRRQRRRARSRLAELRGVPRGL [ST1-104]
d4T-treated rats
  effect on healthy animals (pre-d4T): Neither TAT-CBD3 nor TAT-CBD3A6K administered at 10 mg showed an effect

## YGRKKRRQRRRARSRLKELRGVPRGL [ST1-105]
d4T-treated rats
  effect on healthy animals (pre-d4T): Neither TAT-CBD3 nor TAT-CBD3A6K administered at 10 mg showed an effect
